From US8846393B2, “Methods of improving stem cell homing and engraftment” (Gamida-Cell Ltd., priority 2005, dated 2014)
Several values for one entry are separate records, joined by “and”; a condition that tells them apart may be missing. Identical values can stand only once.

Experiments:
[1] = test system: CD26/dipeptidylpeptidase IV; assay: FACS analysis of CD26 membranal expression on CD34+ cells after short-term incubation; type: cell-based, human
Protocol: Cells were obtained from umbilical cord blood after normal full-term delivery (informed consent was given). Samples were collected and frozen according to Rubinstein et al. [Rubinstein et al. Proc Natl Acad Sci USA. 1995; 92 (22):10119-10122.] within 24 h postpartum. Prior to use, the cells were thawed in Dextran buffer (Sigma, St. Louis, Mo., USA) containing 2.5% human serum albumin (HAS, Bayer Corp. Elkhart, Ind., USA), layered on a Ficoll-Hypaque gradient (1.077 g/mL; Sigma), and centrifuged at 800×g for 30 min. The mononuclear cells in the interface layer were collected and washed three times in phosphate-buffered saline (PBS, Biological Industries) containing 0.5% HSA. To purify the CD34+ cells, the mononuclear cell fraction was subjected to two cycles of immunomagnetic bead separation, using a “MiniMACS CD34 progenitor cell isolation kit” (Miltenyi Biotec Bergisch, Gladbach, Germany), according to manufacturer's instructions. The purity of the CD34+ population thus obtained was 95-98%, as evaluated by flow cytometry. Percentages of progenitor cells positive for CD26 were determined by staining of CD34+ cells with anti-CD26 FITC purchased from Becton Dickinson. […] Freshly purified CD34+ cells were FACS analyzed for the expression of CD26 (T-0) then incubated±Nicotinamide 5 mM for 20 hours (T-20 hours) and FACS analyzed again.

CD34+ cells = assay: In vitro transwell migration assay, CXCL12-induced; type: cell-based, human; conditions: CXCL12 100 ng/ml, 4 hours, CD34+ cells after 3-week culture with cytokines+NA, compared to cytokines alone or non-cultured cells
Protocol: FIG. 2 is a histogram showing the effect of nicotinamide on in-vitro migration of hematopoietic cells. CXCL12 (100 ng/ml)-induced transwell migration of the purified CD34+ cells either before (non-cultured) or after 3-week culture with cytokines and nicotinamide (cytokines+NA) or cytokines alone (cytokines) (n=3, *p<0.02, **p=0.05) was measured as described hereinbelow. Note the enhanced migration of cells cultured in the presence of nicotinamide; Purified CD34+ cells were cultured in culture bags (American Fluoroseal Co., Gaithersburg, Md.) at 1×10^4 cells/ml in MEMα medium, 10% fetal calf serum (FCS) and cytokines: Thrombopoietin (TPO), interleukin-6 (IL-6), FLT-3 ligand and stem cell factor (SCF), each at a final concentration of 50 ng/ml (Perpo Tech, Inc., Rocky Hill, N.J.), with or without 5 mM nicotinamide (NA) (Sigma Aldrich, Milwaukee, Wis.) and incubated at 37° C. in a humidified atmosphere of 5% CO2 in air. […] Until week 3, the cultures were topped weekly with the same volume of fresh medium and then weekly demi-depopulated. Cell counting, colony forming unit (CFUc) assay and immunophenotype analysis were performed as described hereinbelow. […] After 4 hours, cells were collected from both chambers and counted by flow cytometry (FACSsort, Becton Dickinson and Co, San Jose, Calif., USA). […]

NC(=O)c1cccnc1 [nicotinamide]
reduction of CD26 expression ([1]; 20 hours with Nicotinamide 5 mM, compared to cells without Nicotinamide and to freshly purified CD34+ cells (T-0)): 2-3 fold
CD26+ cells (%) ([1]; freshly purified CD34+ cells incubated with Nicotinamide 5 mM for 20 hours (T-20)): 2.7% and 6%
CXCL12-induced migration (CD34+ cells): significantly higher
